According to patent US7960408B2, “Quinolinyl and benzothiazolyl modulators” (Amgen Inc., priority 2000, dated 2011):

The molecules below were run against T1, PPARγ (Homo sapiens, UniProt P37231) (assay: PPARγ ligand binding assay utilizing [3H]-BRL 49653 as the radioligand). Conditions: concentration required to reduce by 50% the specific binding of [3H]-BRL 49653.
T1 construct: made in house
T1 sequence (P37231 1-505): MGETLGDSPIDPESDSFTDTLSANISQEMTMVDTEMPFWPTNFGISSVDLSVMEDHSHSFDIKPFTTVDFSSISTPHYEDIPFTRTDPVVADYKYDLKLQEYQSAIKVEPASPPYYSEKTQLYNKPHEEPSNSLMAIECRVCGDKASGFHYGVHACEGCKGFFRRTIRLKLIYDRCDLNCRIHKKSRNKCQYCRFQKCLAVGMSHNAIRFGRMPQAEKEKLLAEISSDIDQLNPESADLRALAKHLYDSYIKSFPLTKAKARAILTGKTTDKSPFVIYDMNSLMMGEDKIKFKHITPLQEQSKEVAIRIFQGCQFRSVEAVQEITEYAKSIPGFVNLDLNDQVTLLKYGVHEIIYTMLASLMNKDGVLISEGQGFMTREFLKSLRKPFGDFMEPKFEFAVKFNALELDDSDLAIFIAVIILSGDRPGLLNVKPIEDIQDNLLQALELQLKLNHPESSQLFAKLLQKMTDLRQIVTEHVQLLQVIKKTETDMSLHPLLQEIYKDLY
Text: The compounds of the present invention can be evaluated for modulation of the PPARγ receptor using assays such as those described in Jiang, et al., Nature 391:82-86 (1998), Ricote, et al., Nature 391:79-82 (1998) and Lehmann, et al., J. Biol. Chem. 270(12): 12953-12956 (1995). Alternatively, the compounds can be evaluated for their ability to displace radiolabeled BRL 49653 from a PPARγ-GST fusion protein as follows:
PPARγ-GST fusion protein (prepared according to standard procedures), [^3H]—BRL 49653 having 50 Ci/mmol specific activity, Polyfiltronics Unifilter 350 filtration plate and glutathione-Sepharose® beads (from Pharmacia: washed twice with 10× binding buffer in which BSA and DTI can be left out).
Binding buffer (10 mM Tris-HCl, pH 8.0, 50 mM KCI, 10 mM DTT, 0.02% BSA and 0.01% NP-40) is added in 80-μL amounts to the wells of the filtration plate. The test compound is then added in 10 μL of DMSO. The PPARγ-GST fusion protein and radiolabeled BRL compound are premixed in binding buffer containing 10 mM DTT and added in 10-μL amounts to the wells of the plate to provide final concentrations of 1 μg/well of PPARγ-GST fusion protein and 10 nM [^3H]—BRL 49653 compound. The plate is incubated for 15 min. Glutathione-agarose bead is added in 50 μL of binding buffer, and the plate is vigorously shaken for one hour. The plate is washed four times with 200 μL/well of binding buffer (without BSA and DTT). The bottom of the plate is sealed and 200 μL/well of scintillation cocktail is added. The top of the plate is then sealed and the radioactivity is determined.
IC50 values are defined as the concentration of test compounds required to reduce by 50% the specific binding of [^3H]—BRL 49653 and are represented by (+) <30 μM; (++) <10 μM; (+++) <1 μM.

Molecule | IC50 [nM]
2,4-Dichloro-N-[3,5-dichloro-4-(6-methyl-quinoln-3-yloxy)-phenyl]-5-methyl-benzenesulfonamide [Compound 49] | < 1000
O=S(=O)(Nc1cc(Cl)c(Sc2cnc3ccccc3c2)c(Cl)c1)c1ccc(Cl)cc1Cl [Compound 4.1] | < 1000
O=S(=O)(Nc1cc(Cl)c(Sc2cnc3ccccc3c2)c(Cl)c1)c1ccccc1 [Compound 4.2] | < 1000
O=S(=O)(Nc1cc(Cl)c(Sc2cnc3ccccc3c2)c(Cl)c1)c1ccc(C(F)(F)F)cc1Cl [Compound 4.3] | < 1000
O=S(=O)(Nc1cc(Cl)c([S+]([O-])c2cnc3ccccc3c2)c(Cl)c1)c1ccc(Cl)cc1Cl (stereo not drawn) [Compound 5.2] | < 1000
O=S(=O)(Nc1cc(Cl)c([S+]([O-])c2cnc3ccccc3c2)c(Cl)c1)c1ccccc1 (stereo not drawn) [Compound 5.3] | 1000 to 10000
COC(=O)c1ccc2ncc(Oc3c(Cl)cc(NS(=O)(=O)c4ccc(Cl)cc4Cl)cc3Cl)cc2c1 [Compound 45, 3-[2,6-Dichloro-4-(2,4-dichloro-benzenesulfonylamino)-phenoxy]-quinoline-6-carboxylic acid methyl ester] | < 1000
COC(=O)c1cccc2cc(Oc3c(Cl)cc(NS(=O)(=O)c4ccc(Cl)cc4Cl)cc3Cl)cnc12 [Compound 46, 3-[2,6-Dichloro-4-(2,4-dichloro-benzenesulfonylamino)-phenoxy]-quinoline-8-carboxylic acid methyl ester] | < 1000
Cc1cc(S(=O)(=O)Nc2cc(F)c(Oc3cnc4ccccc4c3)c(Cl)c2)c(Cl)cc1Cl [Compound 50, N-[3-Chloro-5-fluoro-4-(quinolin-3-yloxy)phenyl]-2,4-dichloro-5-methyl-benzenesulfonamide] | < 1000
O=S(=O)(Nc1cc(Cl)c(Nc2nc3ccc(Cl)cc3s2)c(Cl)c1)c1ccc(Cl)cc1Cl [Compound 71] | < 1000
Cc1ccc2nc(Nc3c(Cl)cc(NS(=O)(=O)c4ccc(C(F)(F)F)cc4Cl)cc3Cl)sc2c1 [Compound 86] | < 1000
O=S(=O)(Nc1cc(Cl)c(Cc2ccc3ccccc3n2)c(Cl)c1)c1ccc(C(F)(F)F)cc1Cl [Compound 224, 2-Chloro-N-(3,5-dichloro-4-quinolin-2-ylmethyl-phenyl)-4-trifluoromethyl-benzenesulfonamide] | < 1000
O=S(=O)(Nc1cc(Cl)c(Cc2ccc3ccccc3n2)c(Cl)c1)c1ccc(Cl)cc1Cl [Compound 225, 2,4-Dichloro-N-(3,5-dichloro-4-quinolin-2-ylmethyl-phenyl)-benzenesulfonamide] | < 1000
Cc1cc(S(=O)(=O)Nc2cc(Cl)c(Cc3ccc4ccccc4n3)c(Cl)c2)c(Cl)cc1Cl [Compound 226, 2,4-Dichloro-N-(3,5-dichloro-4-quinolin-2-ylmethyl-phenyl)-5-methyl-benzenesulfonamide] | < 1000
O=S(=O)(Nc1cc(Cl)c(Cc2cnc3ccccc3c2)c(Cl)c1)c1ccc(C(F)(F)F)cc1Cl [Compound 231, 2-Chloro-N-(3,5-dichloro-4-quinolin-3-ylmethyl-phenyl)-4-trifluoromethyl-benzenesulfonamide] | < 1000
O=S(=O)(Nc1cc(Cl)c(Cc2cnc3ccccc3c2)c(Cl)c1)c1ccc(Cl)cc1Cl [Compound 232, 2,4-Dichloro-N-(3,5-dichloro-4-quinolin-3-ylmethyl-phenyl)-benzenesulfonamide] | < 1000
O=S(=O)(Nc1cc(Cl)c(Cc2cc3ccccc3cn2)c(Cl)c1)c1ccc(C(F)(F)F)cc1Cl [Compound 237, 2-Chloro-N-(3,5-dichloro-4-isoquinolin-3-ylmethyl-phenyl)-4-trifluoromethyl-benzenesulfonamide] | < 1000

Molecule | IC50 [nM]
O=S(=O)(Nc1cc(Cl)c(Cc2cc3ccccc3cn2)c(Cl)c1)c1ccc(Cl)cc1Cl [Compound 238, 2,4-Dichloro-N-(3,5-dichloro-4-isoquinolin-3-ylmethyl-phenyl)-benzenesulfonamide] | < 1000
O=S(=O)(Nc1cc(Cl)cc(Oc2nc3cc(Cl)ccc3s2)c1)c1ccc(C(F)(F)F)cc1Cl [Compound 283, 2-Chloro-N-[3-chloro-5-(5-chloro-benzothiazol-2-yloxy)-phenyl]-4-trifluoromethyl-benzenesulfonamide] | 1000 to 10000
O=S(=O)(Nc1cc(Cl)cc(Oc2nc3cc(Cl)ccc3s2)c1)c1ccc(Cl)cc1Cl [Compound 284, 2,4-Dichloro-N-[3-chloro-5-(5-chloro-benzothiazol-2-yloxy)-phenyl]-benzenesulfonamide] | < 1000
Cc1cc(S(=O)(=O)Nc2cc(Cl)cc(Oc3nc4cc(Cl)ccc4s3)c2)c(Cl)cc1Cl [Compound 285, 2,4-Dichloro-N-[3-chloro-5-(5-chloro-benzothiazol-2-yloxy)-phenyl]-5-methyl-benzenesulfonamide] | < 1000
N#Cc1ccc2sc(Oc3cc(Cl)cc(NS(=O)(=O)c4ccc(C(F)(F)F)cc4Cl)c3)nc2c1 [Compound 286, 2-Chloro-N-[3-chloro-5-(5-cyano-benzothiazol-2-yloxy)-phenyl]-4-trifluoromethyl-benzenesulfonamide] | 1000 to 10000
N#Cc1ccc2sc(Oc3cc(Cl)cc(NS(=O)(=O)c4ccc(Cl)cc4Cl)c3)nc2c1 [Compound 287, 2,4-Dichloro-N-[3-chloro-5-(5-cyano-benzothiazol-2-yloxy)-phenyl]-benzenesulfonamide] | < 1000
Cc1cc(S(=O)(=O)Nc2cc(Cl)cc(Oc3nc4cc(C#N)ccc4s3)c2)c(Cl)cc1Cl [Compound 288, 2,4-Dichloro-N-[3-chloro-5-(5-cyano-benzothiazol-2-yloxy)-phenyl]-5-methyl-benzenesulfonamide] | < 1000
O=S(=O)(Nc1cc(Cl)cc(Oc2nc3cc(-c4nnn[nH]4)ccc3s2)c1)c1ccc(C(F)(F)F)cc1Cl [Compound 289, 2-Chloro-N-{3-chloro-5-[5-(1H-tetrazol-5-yl)-benzothiazol-2-yloxy]-phenyl}-4-trifluoromethyl-benzenesulfonamide] | < 1000
O=S(=O)(Nc1cc(Cl)cc(Oc2nc3c(Cl)cccc3s2)c1)c1ccc(C(F)(F)F)cc1Cl [Compound 290, 2-Chloro-N-[3-chloro-5-(4-chloro-benzothiazol-2-yloxy)-phenyl]-4-trifluoromethyl-benzenesulfonamide] | 10000 to 30000
O=S(=O)(Nc1cc(Cl)cc(Oc2nc3c(Cl)cccc3s2)c1)c1ccc(Cl)cc1Cl [Compound 291, 2,4-Dichloro-N-[3-chloro-5-(4-chloro-benzothiazol-2-yloxy)-phenyl]-benzenesulfonamide] | 10000 to 30000
Cc1cc(S(=O)(=O)Nc2cc(Cl)cc(Oc3nc4c(Cl)cccc4s3)c2)c(Cl)cc1Cl [Compound 292, 2,4-Dichloro-N-[3-chloro-5-(4-chloro-benzothiazol-2-yloxy)-phenyl]-5-methyl-benzenesulfonamide] | 1000 to 10000
Cc1cccc2sc(Oc3cc(Cl)cc(NS(=O)(=O)c4ccc(C(F)(F)F)cc4Cl)c3)nc12 [Compound 293, 2-Chloro-N-[3-chloro-5-(4-methyl-benzothiazol-2-yloxy)-phenyl]-4-trifluoromethyl-benzenesulfonamide] | < 1000
Cc1cccc2sc(Oc3cc(Cl)cc(NS(=O)(=O)c4ccc(Cl)cc4Cl)c3)nc12 [Compound 294, 2,4-Dichloro-N-[3-chloro-5-(4-methyl-benzothiazol-2-yloxy)-phenyl]-benzenesulfonamide] | 10000 to 30000
Cc1cc(S(=O)(=O)Nc2cc(Cl)cc(Oc3nc4c(C)cccc4s3)c2)c(Cl)cc1Cl [Compound 295, 2,4-Dichloro-N-[3-chloro-5-(4-methyl-benzothiazol-2-yloxy)-phenyl]-5-methyl-benzenesulfonamide] | 1000 to 10000
COc1cccc2sc(Oc3cc(Cl)cc(NS(=O)(=O)c4ccc(C(F)(F)F)cc4Cl)c3)nc12 [Compound 296, 2-Chloro-N-[3-chloro-5-(4-methoxy-benzothiazol-2-yloxy)-phenyl]-4-trifluoromethyl-benzenesulfonamide] | 1000 to 10000
COc1cccc2sc(Oc3cc(Cl)cc(NS(=O)(=O)c4ccc(Cl)cc4Cl)c3)nc12 [Compound 297, 2,4-Dichloro-N-[3-chloro-5-(4-methoxy-benzothiazol-2-yloxy)-phenyl]-benzenesulfonamide] | 1000 to 10000
